Results on 4 molecules are retold here after publication PMC7026418, “The kinase polypharmacology landscape of clinical PARP inhibitors” (Scientific Reports, 2020).

Read-outs that look alike come from different tables or passages of the source.

Among the targets are LRRK2(G2019S) (Homo sapiens, UniProt Q5S007, G2019S); PIK3C2B (Homo sapiens, UniProt O00750); EGFR(G719S) (Homo sapiens, UniProt P00533, G719S).
Holding throughout (assay): biochemical
Common to all, as to set-up: DiscoveRx KINOMEscan active site-directed competition binding; percent of control kinase bound to immobilised ligand

In another test the target is T1, QSK (Homo sapiens, UniProt Q9Y2K2).
T1 construct: gene SIK3

Test [1] addresses T2, ABL1(E255K)-phosphorylated (Homo sapiens, UniProt P00519, E255K).
T2 construct: phosphorylated

The target of a further test is T3, SgK110 (Homo sapiens, UniProt P0C264).
T3 construct: gene SBK3
T3 sequence (P0C264 1-359): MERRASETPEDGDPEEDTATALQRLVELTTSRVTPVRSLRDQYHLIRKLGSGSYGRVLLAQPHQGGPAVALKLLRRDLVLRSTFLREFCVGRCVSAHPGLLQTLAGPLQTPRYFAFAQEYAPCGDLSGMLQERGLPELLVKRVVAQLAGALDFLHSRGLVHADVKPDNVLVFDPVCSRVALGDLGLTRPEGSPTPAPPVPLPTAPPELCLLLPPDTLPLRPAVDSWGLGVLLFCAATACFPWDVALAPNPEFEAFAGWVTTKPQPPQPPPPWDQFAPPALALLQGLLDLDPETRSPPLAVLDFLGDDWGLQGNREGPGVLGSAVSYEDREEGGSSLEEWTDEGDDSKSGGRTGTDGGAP

A further test has as its target T4, TAOK2 (Homo sapiens, UniProt Q9UL54).
T4 sequence (Q9UL54 1-1235): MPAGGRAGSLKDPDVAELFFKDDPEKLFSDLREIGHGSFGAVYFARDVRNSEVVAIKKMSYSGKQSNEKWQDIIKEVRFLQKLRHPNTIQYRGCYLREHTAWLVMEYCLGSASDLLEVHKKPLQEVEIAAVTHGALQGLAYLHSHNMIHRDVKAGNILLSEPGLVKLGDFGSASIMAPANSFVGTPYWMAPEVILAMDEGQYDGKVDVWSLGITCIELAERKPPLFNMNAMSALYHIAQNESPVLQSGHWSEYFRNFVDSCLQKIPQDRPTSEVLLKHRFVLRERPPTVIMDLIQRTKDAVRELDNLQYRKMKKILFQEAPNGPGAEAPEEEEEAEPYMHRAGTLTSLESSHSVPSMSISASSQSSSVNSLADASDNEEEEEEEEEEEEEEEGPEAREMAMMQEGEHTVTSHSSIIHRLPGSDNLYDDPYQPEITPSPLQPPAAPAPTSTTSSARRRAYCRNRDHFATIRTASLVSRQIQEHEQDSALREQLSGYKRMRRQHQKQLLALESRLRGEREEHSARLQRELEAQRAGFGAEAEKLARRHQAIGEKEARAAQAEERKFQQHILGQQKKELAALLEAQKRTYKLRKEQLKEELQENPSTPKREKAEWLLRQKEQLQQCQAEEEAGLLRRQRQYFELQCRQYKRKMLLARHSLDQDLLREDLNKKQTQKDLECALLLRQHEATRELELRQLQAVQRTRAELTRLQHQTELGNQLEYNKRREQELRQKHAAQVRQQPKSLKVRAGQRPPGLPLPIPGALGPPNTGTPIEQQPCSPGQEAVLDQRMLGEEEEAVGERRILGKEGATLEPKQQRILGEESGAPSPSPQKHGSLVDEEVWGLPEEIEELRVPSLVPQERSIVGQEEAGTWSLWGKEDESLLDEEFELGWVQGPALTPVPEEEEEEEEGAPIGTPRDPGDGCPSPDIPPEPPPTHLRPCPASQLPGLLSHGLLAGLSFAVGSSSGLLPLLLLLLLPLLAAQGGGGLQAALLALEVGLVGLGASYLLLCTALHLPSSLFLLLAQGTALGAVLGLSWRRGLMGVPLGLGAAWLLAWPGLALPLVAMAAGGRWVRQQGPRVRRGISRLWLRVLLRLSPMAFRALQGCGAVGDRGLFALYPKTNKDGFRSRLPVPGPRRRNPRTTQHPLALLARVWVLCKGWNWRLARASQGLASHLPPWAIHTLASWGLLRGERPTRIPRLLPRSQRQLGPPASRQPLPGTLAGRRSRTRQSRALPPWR

The next test addresses T5, PFTAIRE2 (Homo sapiens, UniProt Q96Q40).
T5 construct: gene CDK15

A further test addresses T6, ERK5 (Homo sapiens, UniProt Q13164).
T6 construct: gene MAPK7

Setting [2] is: read-out: Niraparib (MK-4827) / %Ctrl @ 10000nM.
Setting [3] is: read-out: Olaparib / %Ctrl @ 10000nM.
[4] abbreviates: read-out: Rucaparib / %Ctrl @ 10000nM, binding competition, % of control.
[5] abbreviates: read-out: Talazoparib (BMN 673) / %Ctrl @ 10000nM.

Sequence of LRRK2(G2019S) (Q5S007 whole entry G2019S): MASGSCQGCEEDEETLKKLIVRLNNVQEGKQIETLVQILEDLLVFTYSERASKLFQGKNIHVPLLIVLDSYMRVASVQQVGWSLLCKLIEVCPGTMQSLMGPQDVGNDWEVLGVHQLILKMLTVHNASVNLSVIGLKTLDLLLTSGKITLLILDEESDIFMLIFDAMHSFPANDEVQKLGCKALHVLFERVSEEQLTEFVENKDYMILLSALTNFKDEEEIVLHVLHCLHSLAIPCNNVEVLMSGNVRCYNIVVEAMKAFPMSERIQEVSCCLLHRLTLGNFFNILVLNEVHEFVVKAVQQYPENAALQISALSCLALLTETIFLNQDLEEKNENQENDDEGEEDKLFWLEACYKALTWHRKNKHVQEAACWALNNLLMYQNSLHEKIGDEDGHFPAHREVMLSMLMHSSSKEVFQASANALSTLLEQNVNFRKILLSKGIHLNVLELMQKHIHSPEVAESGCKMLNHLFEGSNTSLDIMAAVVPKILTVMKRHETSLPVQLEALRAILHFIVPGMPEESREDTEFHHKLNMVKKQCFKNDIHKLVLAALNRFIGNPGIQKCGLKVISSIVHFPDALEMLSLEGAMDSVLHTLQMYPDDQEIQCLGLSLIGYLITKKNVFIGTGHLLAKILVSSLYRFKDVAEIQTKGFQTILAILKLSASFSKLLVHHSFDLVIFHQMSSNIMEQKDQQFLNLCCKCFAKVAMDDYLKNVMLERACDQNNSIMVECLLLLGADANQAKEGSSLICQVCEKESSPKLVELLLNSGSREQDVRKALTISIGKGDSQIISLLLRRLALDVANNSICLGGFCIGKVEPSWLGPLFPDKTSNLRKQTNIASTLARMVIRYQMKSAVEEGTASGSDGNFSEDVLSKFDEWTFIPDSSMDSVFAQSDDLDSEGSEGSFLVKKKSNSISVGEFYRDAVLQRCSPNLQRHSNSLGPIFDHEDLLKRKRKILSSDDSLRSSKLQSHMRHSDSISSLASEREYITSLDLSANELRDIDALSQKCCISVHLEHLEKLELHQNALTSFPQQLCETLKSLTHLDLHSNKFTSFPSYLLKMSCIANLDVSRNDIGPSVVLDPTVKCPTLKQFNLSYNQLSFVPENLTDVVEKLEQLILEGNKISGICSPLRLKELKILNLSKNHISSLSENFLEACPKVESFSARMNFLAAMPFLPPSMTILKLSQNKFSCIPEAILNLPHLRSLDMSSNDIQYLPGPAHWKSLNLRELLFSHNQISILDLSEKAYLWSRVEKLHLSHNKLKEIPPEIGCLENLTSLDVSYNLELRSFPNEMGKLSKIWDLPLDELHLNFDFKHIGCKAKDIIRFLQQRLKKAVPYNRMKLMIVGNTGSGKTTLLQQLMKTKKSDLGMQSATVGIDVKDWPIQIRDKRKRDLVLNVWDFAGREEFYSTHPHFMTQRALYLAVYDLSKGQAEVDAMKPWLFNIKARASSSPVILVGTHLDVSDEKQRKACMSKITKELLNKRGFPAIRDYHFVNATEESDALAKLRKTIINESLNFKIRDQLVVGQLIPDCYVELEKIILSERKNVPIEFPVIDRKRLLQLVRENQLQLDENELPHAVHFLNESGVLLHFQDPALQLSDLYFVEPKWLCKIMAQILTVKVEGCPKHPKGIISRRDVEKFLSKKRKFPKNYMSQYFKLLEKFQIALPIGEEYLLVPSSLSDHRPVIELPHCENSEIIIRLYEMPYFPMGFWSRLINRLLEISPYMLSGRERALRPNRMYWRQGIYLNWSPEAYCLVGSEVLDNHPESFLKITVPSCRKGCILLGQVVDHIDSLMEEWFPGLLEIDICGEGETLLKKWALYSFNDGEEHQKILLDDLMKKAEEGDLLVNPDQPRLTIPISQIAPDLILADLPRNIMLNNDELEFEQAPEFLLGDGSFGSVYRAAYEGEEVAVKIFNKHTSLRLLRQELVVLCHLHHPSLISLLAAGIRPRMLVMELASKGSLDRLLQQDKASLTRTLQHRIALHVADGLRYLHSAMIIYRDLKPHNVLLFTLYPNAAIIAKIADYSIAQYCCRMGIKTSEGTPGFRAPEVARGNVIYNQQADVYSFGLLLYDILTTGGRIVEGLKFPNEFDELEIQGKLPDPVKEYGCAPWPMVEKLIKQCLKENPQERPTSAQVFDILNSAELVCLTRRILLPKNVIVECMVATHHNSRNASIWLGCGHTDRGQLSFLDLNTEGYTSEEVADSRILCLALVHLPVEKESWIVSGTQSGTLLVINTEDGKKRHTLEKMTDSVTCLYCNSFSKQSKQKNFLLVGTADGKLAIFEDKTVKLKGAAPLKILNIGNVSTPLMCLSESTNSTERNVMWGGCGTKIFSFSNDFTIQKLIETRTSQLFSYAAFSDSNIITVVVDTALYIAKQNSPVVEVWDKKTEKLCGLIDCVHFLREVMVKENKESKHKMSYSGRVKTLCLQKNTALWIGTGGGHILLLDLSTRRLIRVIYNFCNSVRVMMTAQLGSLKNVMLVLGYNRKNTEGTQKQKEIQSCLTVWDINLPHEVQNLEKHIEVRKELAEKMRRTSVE
T5 sequence (Q96Q40 whole entry): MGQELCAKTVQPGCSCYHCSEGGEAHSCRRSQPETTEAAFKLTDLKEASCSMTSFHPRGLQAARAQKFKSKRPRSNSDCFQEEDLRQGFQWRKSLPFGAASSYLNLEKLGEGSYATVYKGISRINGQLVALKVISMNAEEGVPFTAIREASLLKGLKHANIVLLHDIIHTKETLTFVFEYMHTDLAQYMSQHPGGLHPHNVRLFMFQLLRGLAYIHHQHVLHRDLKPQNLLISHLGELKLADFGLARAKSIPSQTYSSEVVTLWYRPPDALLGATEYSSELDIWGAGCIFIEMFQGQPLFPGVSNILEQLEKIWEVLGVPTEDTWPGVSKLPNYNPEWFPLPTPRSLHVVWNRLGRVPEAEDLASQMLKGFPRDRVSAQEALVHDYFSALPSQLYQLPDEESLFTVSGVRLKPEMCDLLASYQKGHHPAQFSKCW
T1 sequence (Q9Y2K2 whole entry): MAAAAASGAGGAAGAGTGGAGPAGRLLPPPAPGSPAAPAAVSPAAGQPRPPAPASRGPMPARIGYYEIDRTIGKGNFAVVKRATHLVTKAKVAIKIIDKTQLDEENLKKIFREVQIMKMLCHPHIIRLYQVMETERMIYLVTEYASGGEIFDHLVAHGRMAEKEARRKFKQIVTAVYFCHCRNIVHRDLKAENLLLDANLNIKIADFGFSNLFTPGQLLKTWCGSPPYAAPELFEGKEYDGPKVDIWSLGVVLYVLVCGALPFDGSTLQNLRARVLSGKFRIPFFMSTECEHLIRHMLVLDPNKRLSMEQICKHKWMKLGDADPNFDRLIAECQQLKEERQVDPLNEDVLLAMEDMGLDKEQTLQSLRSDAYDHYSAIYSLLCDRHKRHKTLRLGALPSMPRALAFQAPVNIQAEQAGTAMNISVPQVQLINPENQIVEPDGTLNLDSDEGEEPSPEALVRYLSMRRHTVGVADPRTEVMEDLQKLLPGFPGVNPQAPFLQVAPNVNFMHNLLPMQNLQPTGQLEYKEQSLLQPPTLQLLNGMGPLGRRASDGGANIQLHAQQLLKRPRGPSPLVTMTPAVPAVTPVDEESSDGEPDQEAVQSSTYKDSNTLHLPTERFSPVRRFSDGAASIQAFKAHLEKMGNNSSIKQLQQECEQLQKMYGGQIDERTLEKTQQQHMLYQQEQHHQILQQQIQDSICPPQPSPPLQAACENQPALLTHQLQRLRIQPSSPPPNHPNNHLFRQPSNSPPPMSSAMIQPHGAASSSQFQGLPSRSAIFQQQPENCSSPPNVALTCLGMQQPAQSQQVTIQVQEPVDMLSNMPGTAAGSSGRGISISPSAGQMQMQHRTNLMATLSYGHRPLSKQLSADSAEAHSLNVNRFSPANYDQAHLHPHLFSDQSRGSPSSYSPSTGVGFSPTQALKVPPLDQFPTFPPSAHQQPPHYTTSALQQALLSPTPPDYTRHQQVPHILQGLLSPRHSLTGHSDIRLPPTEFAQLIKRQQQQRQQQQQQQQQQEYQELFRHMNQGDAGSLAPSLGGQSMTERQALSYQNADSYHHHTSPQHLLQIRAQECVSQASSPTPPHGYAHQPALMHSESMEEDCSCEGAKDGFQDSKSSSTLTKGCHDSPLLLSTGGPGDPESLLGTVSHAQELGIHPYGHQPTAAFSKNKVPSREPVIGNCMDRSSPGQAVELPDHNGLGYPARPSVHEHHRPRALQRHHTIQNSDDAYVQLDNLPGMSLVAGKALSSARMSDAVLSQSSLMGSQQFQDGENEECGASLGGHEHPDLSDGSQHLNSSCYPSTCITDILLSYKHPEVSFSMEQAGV
T6 sequence (Q13164 whole entry): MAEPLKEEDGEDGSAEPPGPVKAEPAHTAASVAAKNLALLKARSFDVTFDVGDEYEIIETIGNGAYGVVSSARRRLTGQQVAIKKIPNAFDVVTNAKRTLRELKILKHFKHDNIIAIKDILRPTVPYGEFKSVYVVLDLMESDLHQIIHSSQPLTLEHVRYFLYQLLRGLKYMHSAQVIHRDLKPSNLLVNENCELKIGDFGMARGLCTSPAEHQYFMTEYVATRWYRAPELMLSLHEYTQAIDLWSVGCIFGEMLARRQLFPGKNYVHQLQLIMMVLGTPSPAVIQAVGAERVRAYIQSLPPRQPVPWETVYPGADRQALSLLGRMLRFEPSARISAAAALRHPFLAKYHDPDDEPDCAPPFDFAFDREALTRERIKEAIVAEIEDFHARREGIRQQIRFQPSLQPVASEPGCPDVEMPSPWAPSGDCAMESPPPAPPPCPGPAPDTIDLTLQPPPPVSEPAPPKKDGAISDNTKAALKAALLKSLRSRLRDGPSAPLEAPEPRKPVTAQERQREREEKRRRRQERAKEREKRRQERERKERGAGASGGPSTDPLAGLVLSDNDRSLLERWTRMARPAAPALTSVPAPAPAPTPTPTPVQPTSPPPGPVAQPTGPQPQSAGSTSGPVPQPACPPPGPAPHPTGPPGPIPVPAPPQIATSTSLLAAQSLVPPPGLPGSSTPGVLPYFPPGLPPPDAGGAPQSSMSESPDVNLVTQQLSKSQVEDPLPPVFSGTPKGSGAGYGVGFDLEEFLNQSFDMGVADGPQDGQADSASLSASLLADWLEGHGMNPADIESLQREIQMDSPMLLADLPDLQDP

Turning to `NC(=O)c1cccc2cn(-c3ccc([C@@H]4CCCNC4)cc3)nc12` [Niraparib], the percent of control binding at 10 µM at QSK (setting [2]) is 93%; in [1] (setting [2]), 64%; at LRRK2(G2019S) (setting [2]), 89%; on SgK110 (setting [2]) it was 84%; at PIK3C2B (setting [2]), 100%; at TAOK2 (setting [2]) it was 100%. The percent of control binding at 10 µM on PFTAIRE2 (setting [2]) amounted to 96%; at ERK5 (setting [2]) it was 100%; at EGFR(G719S) (setting [2]), 74%.

For `O=C(c1cc(Cc2n[nH]c(=O)c3ccccc23)ccc1F)N1CCN(C(=O)C2CC2)CC1` [Olaparib], the percent of control binding at 10 µM at QSK (setting [3]) was found to be 83%; in [1] (setting [3]) it was 89%; on LRRK2(G2019S) (setting [3]) it was 84%; on SgK110 (setting [3]), 63%; on PIK3C2B (setting [3]) it was 100%; on TAOK2 (setting [3]), 93%. Further, the figures for the percent of control binding at 10 µM on PFTAIRE2 (setting [3]), at ERK5 (setting [3]) and at EGFR(G719S) (setting [3]) were 100%, 100% and 94%, respectively.

`CNCc1ccc(-c2[nH]c3cc(F)cc4c3c2CCNC4=O)cc1` [Rucaparib]: the percent of control binding at 10 µM on QSK (setting [4]) worked out at 77%; in [1] (setting [4]), 91%; on LRRK2(G2019S) (setting [4]), 87%; at SgK110 (setting [4]) it was 63%; on PIK3C2B (setting [4]), 98%; at TAOK2 (setting [4]), 71%. Also, the percent of control binding at 10 µM was determined as 100% at PFTAIRE2 (setting [4]), 100% on ERK5 (setting [4]) and 89% at EGFR(G719S) (setting [4]).

For the molecule `Cn1ncnc1[C@H]1c2n[nH]c(=O)c3cc(F)cc(c23)N[C@@H]1c1ccc(F)cc1` [Talazoparib], the percent of control binding at 10 µM came to 75% at QSK (setting [5]); 100% in [1] (setting [5]); 100% on LRRK2(G2019S) (setting [5]); 100% on SgK110 (setting [5]); 67% on PIK3C2B (setting [5]); 100% at TAOK2 (setting [5]). Also, the figures for the percent of control binding at 10 µM on PFTAIRE2 (setting [5]), at ERK5 (setting [5]) and at EGFR(G719S) (setting [5]) were 100%, 99% and 99%, respectively.
